These results are taken from patent publication US4133826A, “Novel inversion process” (Roussel UCLAF, priority 1976, dated 1979).

One experiment has as its system insects. Nature of the experiment: Insecticidal activity (general statement). Particulars: in words. It is filed as in vivo.
Experiment [1] concerns Spodoptera Littoralis larvae. Nature of the experiment: Activity against Spodoptera Littoralis larvae (topical application). The format is in vivo. Particulars: for % dead after 24 h / % dead after 48 h: 1 μl acetone solution. How it is done: B. Activity against Spodoptera Littoralis larvae
This test was effected by topical application of 1 μl of an acetone solution of product A on the dorsal thorax of each larva and for each test, 15 caterpillers of Spodoptera Littoralis in the 4th larva stage were used. After treatment, the individuals were placed in an artificial nutritive media (Poitot medium) and the number of dead caterpillers was determined 24 and 48 hours after the treatment to determine the LD50 dose.

Experiment [2] deals with domestic flies (houseflies). Nature of the experiment: Activity against houseflies (topical application). The format is in vivo, domestic flies of mixed sexes. The conditions noted are these: for % dead after 24 hours: 1 μl acetone solution, dorsal thorax. How it is done:
A. Activity against houseflies
The insecticidal tests were effected on domestic flies of mixed sexes by applying a topical solution of 1 μl of acetone solution of (S) α-cyano-3-phenoxybenzyl 2,2-dimethyl-3R-(2,2-dichlorovinyl)-cyclopropane-1R-carboxylate (product A) to the dorsal thorax of the flies. 50 flies were used for each test and the results were determined as the LD50, dose at which 50% of the flies were dead 24 hours after treatment.

With `CC1(C)[C@H](C(=O)O[C@H](C#N)c2cccc(Oc3ccccc3)c2)[C@@H]1C=C(Cl)Cl` [product A, (S) α-cyano-3-phenoxybenzyl 2,2-dimethyl-3R-(2,2-dichlorovinyl)-cyclopropane-1R-carboxylate], in the experiment with insects, the insecticidal activity result is reported as “excellent insecticidal activity”. Further, the “% dead after 24 h” value was found to be 20.5% in experiment [1] (dose 0.1562 ng, topical, dorsal thorax, 4th larva stage); 48.9% in experiment [1] (dose 0.3125 ng, topical, dorsal thorax, 4th larva stage); 80.0% in experiment [1] (dose 0.625 ng, topical, dorsal thorax, 4th larva stage); 95.6% in experiment [1] (dose 1.25 ng, topical, dorsal thorax, 4th larva stage). Besides, the “% dead after 48 h” value in experiment [1] (dose 0.1562 ng, topical, dorsal thorax, 4th larva stage, 48 h) is 27.3%; in experiment [1] (dose 0.3125 ng, topical, dorsal thorax, 4th larva stage, 48 h), 62.2%; in experiment [1] (dose 0.625 ng, topical, dorsal thorax, 4th larva stage, 48 h) it was 82.2%; in experiment [1] (dose 1.25 ng, topical, dorsal thorax, 4th larva stage, 48 h), 97.8%. Moreover, the “effective against larvae of Spodoptera Littoralis” value in experiment [1] (in words, experimental tests) is “effective”. Also, the “LD50 at 48 h” value in experiment [1] (topical, dorsal thorax, 4th larva stage, 48 h) came to 0.3 ng. For the same compound, the “% dead after 24 hours” value is reported as 10.0% in experiment [2] (dose 0.625 ng, topical); 34.5% in experiment [2] (dose 1.25 ng, topical); 68.0% in experiment [2] (dose 2.5 ng, topical); 83.2% in experiment [2] (dose 3.75 ng, topical); 93.3% in experiment [2] (dose 5 ng, topical). For the same compound, the LD50 in experiment [2] (dose at which 50% of the flies were dead 24 hours after treatment, topical) is on record as 1.6 ng. The “effective against domestic flies” value in experiment [2] (in words, experimental tests) was “effective against domestic flies”. The “insecticidal activity against houseflies” value in experiment [2] (in words, from Table I) is recorded as “very high insecticidal activity”.
